# Patent US7964647B2 (Mutual Pharmaceutical Company, Inc., priority 2007, dated 2011)
# Test system: patients with acute gout flare (acute gouty arthritic attack)
# Experiment: Multicenter, randomized, double-blind, placebo-controlled dose comparison study in acute gout flare: efficacy (target joint pain)
# Assay type: in vivo, human
# Conditions: for Difference between treatment groups in mean change from baseline in target joint pain, High vs. Low / Difference between treatment groups in mean change from baseline in target joint pain, High vs. Placebo / Difference between treatment groups in mean change from baseline in target joint pain, Low vs. Placebo / Change from baseline in target joint pain, Mean / Change from baseline in target joint pain, Median / Difference between treatment groups in mean change from baseline in target joint pain score at 24 hours, High vs. Low / Difference between treatment groups in mean change from baseline in target joint pain score at 24 hours, High vs. Placebo / Difference between treatment groups in mean change from baseline in target joint pain score at 24 hours, Low vs. Placebo: LOCF, ITT
# Excerpt: A sufficient number of patients are screened to enroll and randomize 300 patients (100 patients per treatment group) who meet the criteria of the American College of Rheumatology (ACR) for acute arthritis of gout.
# Efficacy assessment will be made based on patient and Investigator inputs. Patients will record pain severity and sleep interference on a study diary. The severity of pain for each joint affected by the acute gouty arthritic attack will be rated on an 11-point pain intensity numerical rating scale (PI-NRS) that ranges from 0 (“no pain”) to 10 (“worst possible pain”). […] Investigators will provide clinical assessments in the clinic at all Post-Flare Phase study visits, and at medically necessary intervening visits. For these assessments, each of the patient's joints affected by the acute gouty arthritic attack will be examined and signs and symptoms of inflammation will be rated (erythema [absent, present, or not assessable], swelling [0, “none” to 3, “severe”], and tenderness to touch [0, “none” to 3, “severe”]).
# The target joint is identified during data analysis as that joint affected by the acute gout flare with the highest baseline pain score on the patient diary. Ties among maximum joint scores for an individual are resolved by random selection.
# The secondary efficacy variables are assessments of magnitude of pain reduction, time to response, time to complete pain relief, and interference with sleep as recorded on patient diaries by the patient. Signs and symptoms of inflammation per Investigator's clinical assessments of the target joint are evaluated. Time to drop out (use of rescue medications) is also evaluated. Investigator global assessment of response to treatment is assessed.
# Analyses will also be made on an Evaluable patient population with an Evaluable patient defined as one who, in addition to being included in the PP population, completed the randomized treatment course. The ITT population will be used for the evaluation of safety.
# Statistical tests for efficacy analysis are two-tailed with an alpha significance level of 0.05.
# The sensitivity to alternate definitions of response (based both on magnitude of reduction from baseline as well as time point) will be evaluated as secondary endpoints. As additional sensitivity analyses, these tests will also be repeated for the PP and Evaluable populations if the sample sizes differ from the overall ITT population by more than 10%.
# Change in pain intensity, interference with sleep, time to 50% reduction in pain, and time to complete pain relief will be analyzed as continuous variables using analysis of covariance with study site, treatment group, and site by treatment interaction as independent variables for change in pain intensity and interference with sleep, with baseline score as a covariate. For the Investigator's clinical assessment of inflammation (erythema, swelling, and tenderness to touch) and Investigator's global assessment of response to treatment, the treatment groups will be compared using the Mantel-Haenszel chi-square test stratified on study site.
# [1] = 24 hours post first dose, High dose 4.8 mg, N = 52
# [2] = 24 hours post first dose, Low dose 1.8 mg, N = 74
# [3] = 32 hours post first dose, High dose 4.8 mg, N = 52
# [4] = 32 hours post first dose, Low dose 1.8 mg, N = 74
# [5] = Early treatment start (within 4 hours)
# [6] = Early treatment start (within 4 hours), High dose 4.8 mg
# [7] = Early treatment start (within 4 hours), Low dose 1.8 mg
# [8] = Hour 24, High dose 4.8 mg, n = 51
# [9] = Hour 24, Low dose 1.8 mg, n = 74
# [10] = Hour 32, High dose 4.8 mg, n = 51
# [11] = Hour 32, Low dose 1.8 mg, n = 74
# [12] = Late treatment start (after 4 hours)
# [13] = Late treatment start (after 4 hours), High dose 4.8 mg
# [14] = Late treatment start (after 4 hours), Low dose 1.8 mg
smiles,measurement,setting,value
"COc1cc2c(c(OC)c1OC)-c1ccc(OC)c(=O)cc1[C@@H](NC(C)=O)CC2 [Colchicine, (−)-N-[(7S,12aS)-1,2,3,10-tetramethoxy-9-oxo-5,6,7,9-tetrahydrobenzo[a]heptalen-7-yl]-acetamide]","Difference between treatment groups in mean change from baseline in target joint pain, High vs. Low",24 hours post first dose,0.2
same,"Difference between treatment groups in mean change from baseline in target joint pain, High vs. Placebo",24 hours post first dose,−1.3
same,"Difference between treatment groups in mean change from baseline in target joint pain, Low vs. Placebo",24 hours post first dose,−1.5
same,"Change from baseline in target joint pain, Mean",[1],−2.0
same,"Change from baseline in target joint pain, Median",[1],−2.0
same,"Change from baseline in target joint pain, Mean",[2],−2.2
same,"Change from baseline in target joint pain, Median",[2],−2.0
same,"Number (%) of responders, at least a 2-unit reduction in target joint pain score",[1],18 (34.6) Number (%)
same,"Number (%) of responders, at least a 2-unit reduction in target joint pain score",[2],32 (43.2) Number (%)
same,"Difference between treatment groups in mean change from baseline in target joint pain, High vs. Low",32 hours post first dose,0.1
same,"Difference between treatment groups in mean change from baseline in target joint pain, High vs. Placebo",32 hours post first dose,−1.6
same,"Difference between treatment groups in mean change from baseline in target joint pain, Low vs. Placebo",32 hours post first dose,−1.6
same,"Change from baseline in target joint pain, Mean",[3],−2.3
same,"Change from baseline in target joint pain, Median",[3],−2.0
same,"Change from baseline in target joint pain, Mean",[4],−2.4
same,"Change from baseline in target joint pain, Median",[4],−2.5
same,"Number (%) of responders, at least a 2-unit reduction in target joint pain score",[3],20 (38.5) Number (%)
same,"Number (%) of responders, at least a 2-unit reduction in target joint pain score",[4],34 (45.9) Number (%)
same,"Difference between treatment groups in mean change from baseline in target joint pain score at 24 hours, High vs. Low",[5],0.2
same,"Difference between treatment groups in mean change from baseline in target joint pain score at 24 hours, High vs. Placebo",[5],−1.3
same,"Difference between treatment groups in mean change from baseline in target joint pain score at 24 hours, Low vs. Placebo",[5],−1.5
same,"Change from baseline in target joint pain score at 24 hours post first dose, Mean",[6],−2.0
same,"Change from baseline in target joint pain score at 24 hours post first dose, Median",[6],−2.0
same,"Change from baseline in target joint pain score at 24 hours post first dose, Mean",[7],−2.2
same,"Change from baseline in target joint pain score at 24 hours post first dose, Median",[7],−2.0
same,"Number of responders (>=50% reduction in target joint pain score, no rescue medication) at 24 hours post first dose","High (standard) dose 4.8 mg over 6 h, N = 52, ITT",17 (32.7) N (%)
same,Number (%) of patients using rescue medication up to and including the 24-hour post first dose assessment,"High dose 4.8 mg, N = 52",18 (34.6) n (%)
same,Patients with >=0% improvement in target joint pain score at 24 hours post first dose,"High dose 4.8 mg, N = 52",52 (100.0%)
same,Patients with >=10% improvement in target joint pain score at 24 hours post first dose,"High dose 4.8 mg, N = 52",32 (61.5%)
same,Patients with >=20% improvement in target joint pain score at 24 hours post first dose,"High dose 4.8 mg, N = 52",29 (55.8%)
same,Patients with >=30% improvement in target joint pain score at 24 hours post first dose,"High dose 4.8 mg, N = 52",21 (40.4%)
same,Patients with >=40% improvement in target joint pain score at 24 hours post first dose,"High dose 4.8 mg, N = 52",21 (40.4%)
same,Patients with >=50% improvement in target joint pain score at 24 hours post first dose,"High dose 4.8 mg, N = 52",19 (36.5%)
same,Patients with >=60% improvement in target joint pain score at 24 hours post first dose,"High dose 4.8 mg, N = 52",15 (28.8%)
same,Patients with >=70% improvement in target joint pain score at 24 hours post first dose,"High dose 4.8 mg, N = 52",10 (19.2%)
same,Patients with >=80% improvement in target joint pain score at 24 hours post first dose,"High dose 4.8 mg, N = 52",9 (17.3%)
same,Patients with >=90% improvement in target joint pain score at 24 hours post first dose,"High dose 4.8 mg, N = 52",6 (11.5%)
same,Patients with >=100% improvement in target joint pain score at 24 hours post first dose,"High dose 4.8 mg, N = 52",6 (11.5%)
same,"Total Pain Relief (TOTPAR) based on all target joint pain scores, Mean",[8],20.9
same,"Total Pain Relief (TOTPAR) based on all target joint pain scores, Median",[8],11.5
same,"Total Pain Relief (TOTPAR) based on all target joint pain scores, Mean",[9],30.5
same,"Total Pain Relief (TOTPAR) based on all target joint pain scores, Median",[9],23.0
same,"Total Pain Relief (TOTPAR) based on all target joint pain scores, Mean",[10],31.9
same,"Total Pain Relief (TOTPAR) based on all target joint pain scores, Median",[10],27.5
same,"Total Pain Relief (TOTPAR) based on all target joint pain scores, Mean",[11],45.5
same,"Total Pain Relief (TOTPAR) based on all target joint pain scores, Median",[11],34.1
same,"Difference between treatment groups in mean change from baseline in target joint pain score at 24 hours, High vs. Low",[12],0.1
same,"Difference between treatment groups in mean change from baseline in target joint pain score at 24 hours, High vs. Placebo",[12],−1.6
same,"Difference between treatment groups in mean change from baseline in target joint pain score at 24 hours, Low vs. Placebo",[12],−1.6
same,"Change from baseline in target joint pain score at 24 hours post first dose, Mean",[13],−2.3
same,"Change from baseline in target joint pain score at 24 hours post first dose, Median",[13],−2.0
same,"Change from baseline in target joint pain score at 24 hours post first dose, Mean",[14],−2.4
same,"Change from baseline in target joint pain score at 24 hours post first dose, Median",[14],−2.5
same,"Number of responders (>=50% reduction in target joint pain score, no rescue medication) at 24 hours post first dose","Low dose 1.8 mg over 1 h, N = 74, ITT",28 (37.8) N (%)
same,Number (%) of patients using rescue medication up to and including the 24-hour post first dose assessment,"Low dose 1.8 mg, N = 74",23 (31.1) n (%)
same,Patients with >=0% improvement in target joint pain score at 24 hours post first dose,"Low dose 1.8 mg, N = 74",74 (100.0%)
same,Patients with >=10% improvement in target joint pain score at 24 hours post first dose,"Low dose 1.8 mg, N = 74",47 (63.5%)
same,Patients with >=20% improvement in target joint pain score at 24 hours post first dose,"Low dose 1.8 mg, N = 74",45 (60.8%)
same,Patients with >=30% improvement in target joint pain score at 24 hours post first dose,"Low dose 1.8 mg, N = 74",39 (52.7%)
same,Patients with >=40% improvement in target joint pain score at 24 hours post first dose,"Low dose 1.8 mg, N = 74",36 (48.6%)
same,Patients with >=50% improvement in target joint pain score at 24 hours post first dose,"Low dose 1.8 mg, N = 74",30 (40.5%)
same,Patients with >=60% improvement in target joint pain score at 24 hours post first dose,"Low dose 1.8 mg, N = 74",24 (32.4%)
same,Patients with >=70% improvement in target joint pain score at 24 hours post first dose,"Low dose 1.8 mg, N = 74",20 (27.0%)
same,Patients with >=80% improvement in target joint pain score at 24 hours post first dose,"Low dose 1.8 mg, N = 74",15 (20.3%)
same,Patients with >=90% improvement in target joint pain score at 24 hours post first dose,"Low dose 1.8 mg, N = 74",9 (12.2%)
same,Patients with >=100% improvement in target joint pain score at 24 hours post first dose,"Low dose 1.8 mg, N = 74",8 (10.8%)
same,"Patients achieving at least 40% relief at 24 hrs post-first dose, regardless of pain rescue (FIG. 1)",low dose 1.8 mg,49%
same,Proportion of patients rescued prior to 24 hours,low dose 1.8 mg,28.4%
same,Proportion of patients with ≧50% pain reduction at 24 hrs without pain rescue,low dose 1.8 mg,37.8%
same,Proportion of patients rescued prior to 24 hours,standard dose 4.8 mg,34.6%
same,Proportion of patients with ≧50% pain reduction at 24 hrs without pain rescue,standard dose 4.8 mg,32.7%
